This note sets out measurements from article PMC11191402, “High-Affinity NIR-Fluorescent Inhibitors for Tumor Imaging via Carbonic Anhydrase IX” (Bioconjugate Chemistry, 2024).

In one experiment the target is T1, human recombinant CAII (Homo sapiens, UniProt P00918).
T1 construct: made in house; host or cells: bacterial expression system
Description: Fluorescence-based thermal shift assay (FTSA), CAII. To be noted: 37 °C, pH 7.0. It is filed as binding. As to the method: (§1) The binding affinities of the four NIR-fluorescent compounds to 12 catalytically active recombinant CA isozymes were determined by the fluorescence-based thermal shift assay (FTSA), and the dissociation constants (Kd’s) at physiological pH (pH 7.0) and 37 °C are listed in Table 1.
(§2) All 12 catalytically active human CA isozymes were prepared recombinantly as previously described. Most isozymes were truncated, and only the catalytic domains of the proteins were produced.[9],[56] All isozymes were expressed in a bacterial expression system except that CAIX was expressed in mammalian cells. The proteins were chromatographically purified via immobilized metal affinity chromatography, ion-exchange, or p-aminomethylbenzenesulfonamide-sepharose affinity chromatography. Protein purity was confirmed by SDS-PAGE, and MW was confirmed by mass spectrometry with 1 Da precision, as predicted from theoretical protein sequence.
(§3) The fluorescence-based thermal shift assay (FTSA) was used to determine the binding affinity of compounds for all catalytically active CA isozymes. The assay is based on the thermal stabilization of proteins by bound ligands and distinguishes itself in its ability to determine extremely high affinity (picomolar Kd) of compound binding to CAIX. The experiments were performed with a QIAGEN Rotor-Gene Q instrument using either the blue channel (365 ± 20 nm excitation and 460 ± 15 nm emission detection) or the green channel (470 ± 10 nm excitation and 510 ± 5 nm detection). The protein solution, in the absence and presence of various compound concentrations ranging from 3 to 200 μM (2× dilutions), was heated from 25 to 99 °C (heating rate, 1 °C/min). The CA isozyme melting temperature Tm was determined by following the fluorescence of 8-anilino-1-naphthalenesulfonate (ANS) or Glomelt dye. The samples consisted of 5 μM protein (or 10 μM CAIV), different concentrations of the tested compound, and 50 μM ANS or 200× diluted Glomelt in 50 mM sodium phosphate buffer (at pH 7.0) containing 100 mM sodium chloride and 2–4% (v/v) dimethyl sulfoxide. To obtain the dissociation constant (at 37 °C), data analysis was performed, and the curves were fit using the Thermott Web server.[57]

A further experiment has as its target T2, human recombinant CAIII (Homo sapiens, UniProt P07451).
T2 construct: made in house; host or cells: bacterial expression system
The experiment can be described thus: Fluorescence-based thermal shift assay (FTSA), CAIII. It is filed as binding. Particulars: 37 °C, pH 7.0. How it is done:
as §1, §2, §3

The target in a further experiment is T3, human recombinant CAIV (Homo sapiens, UniProt P22748).
T3 construct: Most isozymes were truncated, and only the catalytic domains of the proteins were produced; made in house; host or cells: bacterial expression system
Description: Fluorescence-based thermal shift assay (FTSA), CAIV. It is filed as binding. To be noted: 37 °C, pH 7.0. As to the method:
as §1, §2, §3

The target of a further experiment is T4, human recombinant CAVA (Homo sapiens, UniProt P35218).
T4 construct: Most isozymes were truncated, and only the catalytic domains of the proteins were produced; made in house; host or cells: bacterial expression system
The experiment can be described thus: Fluorescence-based thermal shift assay (FTSA), CAVA. It is filed as binding. To be noted: 37 °C, pH 7.0. As to the method: as §1, §2, §3

The next experiment deals with T5, human recombinant CAVII (Homo sapiens, UniProt P43166).
T5 construct: made in house; host or cells: bacterial expression system
The experiment can be described thus: Fluorescence-based thermal shift assay (FTSA), CAVII. It is filed as binding. Particulars: 37 °C, pH 7.0. How it is done:
as §1, §2
as §3, with “To obtain the dissociation constant (at 37 °C), data analysis was performed, and the curves were fit using the Thermott Web server.[57]” left out

The target of a further experiment is T6, human recombinant CAIX (Homo sapiens, UniProt Q16790).
T6 construct: Most isozymes were truncated, and only the catalytic domains of the proteins were produced; made in house; host or cells: mammalian cells
The experiment can be described thus: Fluorescence-based thermal shift assay (FTSA), CAIX. It is filed as binding. Particulars: 37 °C, pH 7.0. How it is done:
as §1, §2, §3

Another experiment has as its target T7, human recombinant CAXII (Homo sapiens, UniProt O43570).
T7 construct: Most isozymes were truncated, and only the catalytic domains of the proteins were produced; made in house; host or cells: bacterial expression system
The experiment can be described thus: Fluorescence-based thermal shift assay (FTSA), CAXII. It is filed as binding. Particulars: 37 °C, pH 7.0. How it is done: as §1, §2, §3

For another experiment, the target named is T8, human recombinant CAXIII (Homo sapiens, UniProt Q8N1Q1).
T8 construct: made in house; host or cells: bacterial expression system
Description: Fluorescence-based thermal shift assay (FTSA), CAXIII. To be noted: 37 °C, pH 7.0. It is filed as binding. How it is done: as §1, §2
as §3, with “To obtain the dissociation constant (at 37 °C), data analysis was performed, and the curves were fit using the Thermott Web server.[57]” left out

Experiment [1] addresses T9, CAIX expressed on cell membranes of HeLa cells (Homo sapiens, UniProt Q16790).
T9 construct: an open reading frame for the full-length CAIX protein (1–459 amino acids) without a tag; expressed in transfected cells; host or cells: HeLa cells transfected with pCMV-CAIX (TurboFect), normoxia
The experiment can be described thus: Fluorescence microscopy staining of live HeLa cells. It is filed as cell-based. Particulars: for staining of HeLa cells (NIR fluorescence microscopy): 250 nM compound, pCMV-CAIX-transfected cells, normoxia. An excerpt: Live HeLa cell culture was used for visualization of the NIR-fluorescent compound binding to CAIX expressed on cell membranes (Figures 3 and S2). […] Hypoxic conditions were insufficient for CAIX-specific fluorescence detection (Figure S3). Transfected cells expressed 10-fold more CAIX protein than cells grown under hypoxia, as determined by dosing the fluorescein-containing compound GZ19-32. […] We should point out that microphotographs in Figures 3 and S2 were taken at different exposure times to ensure good visualization quality. Nevertheless, all four compounds were suitable for direct visualization of CAIX expressed on transfected cell membranes.
For visualization of CAIX in live cells, HeLa cells were seeded in 12-well plates, and the next day they were transfected with the pCMV-CAIX plasmid to induce CAIX expression under normoxia. The TurboFect Transfection Reagent (Thermo Fisher) was used for this purpose according to manufacturer’s directions. Cells were stained and visualized next day after transfection. Nontransfected cells, grown under normoxia, were used as a control. For the induction of CAIX expression without transfection, cells were cultured under hypoxia for 3 days.
For cell imaging, live cells were incubated with the recombinant monoclonal antibody to CAIX (M75) (Absolute Antibody, #Ab00414–1.1) in the CO2 incubator for 30 min. The antibody stock solution (1 mg/mL) was used at a dilution of 1:150 in FluoroBright (FB)(Thermo Fisher) medium. After washing (3 × 5 min with DMEM in RT, gentle rock), cells were incubated with secondary Alexa Fluor 488 goat antimouse antibodies (2 mg/mL, Thermo Fisher), at a dilution of 1:200 in FB, in a CO2 incubator for 30 min. After washing (3 × 5 min with DMEM in RT and 2 × 1 min with PBS), cells were incubated with NIR-fluorescent inhibitors ([…] in PBS) in a CO2 incubator for 5–8 min. After washing (2 min + 2 × 1 min with PBS), PBS was replaced by FB, and 15 μL of NucBlue Live Cell Stain ReadyProbes reagent (Thermo Fisher) was added per well. After 5 min, cells were observed and photographed using an automated fluorescence microscope EVOS FL Auto (Thermo Fisher).

“And” between values parts separate entries of the source, which are not always exact repeats. Identical values can stand only once.

T7 sequence (O43570 30-289 limits assumed): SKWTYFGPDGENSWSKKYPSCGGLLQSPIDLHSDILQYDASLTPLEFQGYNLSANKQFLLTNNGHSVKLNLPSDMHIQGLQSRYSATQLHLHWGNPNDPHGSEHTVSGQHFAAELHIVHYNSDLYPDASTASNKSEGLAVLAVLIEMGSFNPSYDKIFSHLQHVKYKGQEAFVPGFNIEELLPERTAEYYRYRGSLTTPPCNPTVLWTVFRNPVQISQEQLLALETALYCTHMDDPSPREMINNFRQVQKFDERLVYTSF
T8 sequence (Q8N1Q1 whole entry): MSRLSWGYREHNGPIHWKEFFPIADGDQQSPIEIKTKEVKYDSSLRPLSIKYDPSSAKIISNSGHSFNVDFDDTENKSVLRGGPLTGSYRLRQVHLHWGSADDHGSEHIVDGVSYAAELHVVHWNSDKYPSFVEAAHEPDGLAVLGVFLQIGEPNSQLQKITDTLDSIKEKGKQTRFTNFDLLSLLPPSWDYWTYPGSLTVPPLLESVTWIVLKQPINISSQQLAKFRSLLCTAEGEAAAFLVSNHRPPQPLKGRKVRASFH
T2 sequence (P07451 whole entry): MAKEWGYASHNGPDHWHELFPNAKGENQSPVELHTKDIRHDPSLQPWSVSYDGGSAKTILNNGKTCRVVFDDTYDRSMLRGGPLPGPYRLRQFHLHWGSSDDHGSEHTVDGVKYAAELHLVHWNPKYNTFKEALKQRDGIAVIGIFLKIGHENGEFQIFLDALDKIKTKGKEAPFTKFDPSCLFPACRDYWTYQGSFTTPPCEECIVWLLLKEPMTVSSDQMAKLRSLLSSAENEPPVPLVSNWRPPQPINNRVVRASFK
T5 sequence (P43166 whole entry): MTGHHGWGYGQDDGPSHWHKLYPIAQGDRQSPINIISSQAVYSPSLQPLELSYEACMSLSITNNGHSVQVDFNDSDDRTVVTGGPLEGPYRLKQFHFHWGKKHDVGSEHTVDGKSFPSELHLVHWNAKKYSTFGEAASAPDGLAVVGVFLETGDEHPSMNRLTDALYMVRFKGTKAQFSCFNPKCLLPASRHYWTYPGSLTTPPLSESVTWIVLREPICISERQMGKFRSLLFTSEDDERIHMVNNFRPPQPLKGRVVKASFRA
T3 sequence (P22748 21-285 limits assumed): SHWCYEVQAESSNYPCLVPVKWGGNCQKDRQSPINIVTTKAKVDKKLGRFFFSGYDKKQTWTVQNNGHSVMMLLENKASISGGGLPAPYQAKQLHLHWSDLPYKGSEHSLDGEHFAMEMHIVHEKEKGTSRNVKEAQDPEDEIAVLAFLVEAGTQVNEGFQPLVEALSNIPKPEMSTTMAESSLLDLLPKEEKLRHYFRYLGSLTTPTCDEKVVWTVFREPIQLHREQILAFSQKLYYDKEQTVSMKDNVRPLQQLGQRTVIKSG
T4 sequence (P35218 39-296 limits assumed): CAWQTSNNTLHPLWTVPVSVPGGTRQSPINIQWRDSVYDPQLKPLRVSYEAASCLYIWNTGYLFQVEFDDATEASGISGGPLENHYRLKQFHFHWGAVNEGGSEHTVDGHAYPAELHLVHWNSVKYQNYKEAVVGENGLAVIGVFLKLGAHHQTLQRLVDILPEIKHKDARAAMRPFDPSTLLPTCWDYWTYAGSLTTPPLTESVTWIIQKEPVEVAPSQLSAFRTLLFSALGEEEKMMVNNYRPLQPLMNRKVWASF

As for `CC1(C)C(/C=C/C2=C(Oc3ccc(CCC(=O)NCCOCCOCCOCCOCCOCCOCCOCCOCCOCCOCCOCCNC(=O)CCS(=O)(=O)c4c(F)c(F)c(S(N)(=O)=O)c(F)c4NC4CCCCCCC4)cc3)C(=C/C=C3\N(CCCCS(=O)(=O)[O-])c4ccccc4C3(C)C)/CCC2)=[N+](CCCCS(=O)(=O)[O-])c2ccccc21.[Na+]` [GZ22-4, Sodium 4-((Z)-2-((E)-2-(2-(4-(43-((2-(Cyclooctylamino)-3,5,6-trifluoro-4-sulfamoylphenyl)sulfonyl)-3,41-dioxo-7,10,13,16,19,22,25,28,31,34,37-undecaoxa-4,40-diazatritetracontyl)phenoxy)-3-((E)-2-(3,3-dimethyl-1-(4-sulfonatobutyl)-3H-indol-1-ium-2-yl)vinyl)cyclohex-2-en-1-ylidene)ethylidene)-3,3-dimethylindolin-1-yl)butane-1-sulfonate], the Kd (usually the constant that tells how readily two partners part at equilibrium) at human recombinant CAII was 200 nM; at human recombinant CAIII it was 5000 nM; on human recombinant CAIV, 8000 nM; on human recombinant CAVA, 2000 nM; on human recombinant CAVII, 40 nM; at human recombinant CAIX, 0.17 nM and 0.2 nM. Also, the results for the Kd on human recombinant CAXII and on human recombinant CAXIII were 80 nM and 5 nM, respectively. In addition, the “staining of HeLa cells (NIR fluorescence microscopy)” value (“staining of HeLa cells” below) in experiment [1] is “stained the membranes of pCMV-CAIX-transfected cells”. Moreover, the “fluorescence signal compared to the other compounds at identical exposure conditions” value in experiment [1] (250 nM, transfected HeLa, Cy7 filter) was “best fluorescence signal”.
As to `CC1(C)C(/C=C/C2=C(NCCCOCCOCCOCCCNC(=O)CCC(=O)NCCS(=O)(=O)c3c(F)c(F)c(S(N)(=O)=O)c(F)c3NC3CCCCCCC3)C(=C/C=C3\N(CCCCS(=O)(=O)[O-])c4ccccc4C3(C)C)/CCC2)=[N+](CCCCS(=O)(=O)[O-])c2ccccc21.[Na+]` [AZ21-6, Sodium 4-((Z)-2-((E)-2-(2-((1-((2-(Cyclooctylamino)-3,5,6-trifluoro-4-sulfamoylphenyl)sulfonyl)-4,7-dioxo-12,15,18-trioxa-3,8-diazahenicosan-21-yl)amino)-3-((E)-2-(3,3-dimethyl-1-(4-sulfonatobutyl)-3H-indol-1-ium-2-yl)vinyl)cyclohex-2-en-1-ylidene)ethylidene)-3,3-dimethylindolin-1-yl)butane-1-sulfonate], the Kd on human recombinant CAII amounted to 2000 nM; at human recombinant CAIII, 30000 nM; on human recombinant CAIV, 8000 nM; at human recombinant CAVA it was 10000 nM; at human recombinant CAVII, 60 nM; at human recombinant CAIX, 0.3 nM. Besides, the dissociation constant (Kd) at human recombinant CAXII came to 50 nM; on human recombinant CAXIII it was 10 nM. Further, the “staining of HeLa cells” value in [1] is recorded as “stained the membranes of pCMV-CAIX-transfected cells”.
`CC1(C)C(/C=C/C2=C(Oc3ccc(CCC(=O)NCCCOCCOCCOCCCNC(=O)CCS(=O)(=O)c4c(F)c(F)c(S(N)(=O)=O)c(F)c4NC4CCCCCCC4)cc3)C(=C/C=C3\N(CCCCS(=O)(=O)[O-])c4ccccc4C3(C)C)/CCC2)=[N+](CCCCS(=O)(=O)[O-])c2ccccc21.[Na+]` [GZ22-1, Sodium 4-((Z)-2-((E)-2-(2-(4-(21-((2-(Cyclooctylamino)-3,5,6-trifluoro-4-sulfamoylphenyl)sulfonyl)-3,19-dioxo-8,11,14-trioxa-4,18-diazahenicosyl)phenoxy)-3-((E)-2-(3,3-dimethyl-1-(4-sulfonatobutyl)-3H-indol-1-ium-2-yl)vinyl)cyclohex-2-en-1-ylidene)ethylidene)-3,3-dimethylindolin-1-yl)butane-1-sulfonate]: the Kd amounted to 20 nM on human recombinant CAII; 30000 nM at human recombinant CAIII; 7000 nM at human recombinant CAIV; 1000 nM on human recombinant CAVA; 30 nM on human recombinant CAVII; 0.3 nM on human recombinant CAIX. The Kd at human recombinant CAXII worked out at 200 nM; on human recombinant CAXIII, 8 nM. In addition, the “staining of HeLa cells” value in [1] is given as “stained the membranes of pCMV-CAIX-transfected cells”.
`CC1(C)C(/C=C/C2=C(Oc3cccc(CC(=O)NCCCOCCOCCOCCCNC(=O)CCS(=O)(=O)c4c(F)c(F)c(S(N)(=O)=O)c(F)c4NC4CCCCCCC4)c3)C(=C/C=C3\N(CCCCS(=O)(=O)[O-])c4ccccc4C3(C)C)/CCC2)=[N+](CCCCS(=O)(=O)[O-])c2ccccc21.[Na+]` [GZ21-19, Sodium 4-((Z)-2-((E)-2-(2-(3-(20-((2-(Cyclooctylamino)-3,5,6-trifluoro-4-sulfamoylphenyl)sulfonyl)-2,18-dioxo-7,10,13-trioxa-3,17-diazaicosyl)phenoxy)-3-((E)-2-(3,3-dimethyl-1-(4-sulfonatobutyl)-3H-indol-1-ium-2-yl)vinyl)cyclohex-2-en-1-ylidene)ethylidene)-3,3-dimethylindolin-1-yl)butane-1-sulfonate]: the Kd on human recombinant CAII stood at 400 nM; at human recombinant CAIII, 20000 nM; at human recombinant CAIV it was 2000 nM; on human recombinant CAVA, 2000 nM; on human recombinant CAIX it was 0.2 nM; at human recombinant CAXII, 60 nM. The “staining of HeLa cells” value in experiment [1] is “stained the membranes of pCMV-CAIX-transfected cells”.
